Laboratory results as given in ChEMBL document CHEMBL1649203, “Pharmacokinetics and safety of famciclovir in children with herpes simplex or varicella-zoster virus infection” (Antimicrob Agents Chemother, 2009).

Columns and labels:
[1] = Tmax in 1 to <2 years aged pediatric patient administered as single dose; format: ADME, organism-based; conditions: human, in vivo
[2] = tested on: Homo sapiens; test: Toxicity in orally dosed VZV-infected patient assessed as incidence of headache administered as tid; format: organism-based; conditions: in vivo, po
[3] = Apparent oral clearance in 1 to <2 years aged pediatric patient administered as single dose; format: ADME, organism-based; conditions: human, in vivo
[4] = tested on: Homo sapiens; test: AUC (0 to infinity) in 2 to <6 years aged pediatric patient administered as single dose; format: ADME, organism-based, Plasma; design: time infinity; conditions: in vivo
[5] = tested on: Homo sapiens; test: Toxicity in VZV-infected 6 to <=12 years aged pediatric patient assessed as incidence of diarrhea at 35.5 mg/kg, po tid; format: organism-based; design: dose 35.5 mg/kg, route oral; conditions: in vivo
[6] = tested on: Homo sapiens; test: Toxicity in VZV-infected 6 to <=12 years aged pediatric patient assessed as incidence of abdominal pain at 35.5 mg/kg, po tid; format: organism-based, Abdomen; design: dose 35.5 mg/kg, route oral; conditions: in vivo
[7] = tested on: Homo sapiens; test: Toxicity in orally dosed HSV-infected patient assessed as incidence of headache administered as bid; format: organism-based; conditions: in vivo, po
[8] = tested on: Homo sapiens; test: Toxicity in orally dosed HSV-infected patient assessed as incidence of diarrhea administered as bid; format: organism-based; conditions: in vivo, po
[9] = tested on: Homo sapiens; test: AUC (0 to infinity) in 1 to <2 years aged pediatric patient administered as single dose; format: ADME, organism-based, Plasma; design: time infinity; conditions: in vivo
[10] = tested on: Homo sapiens; test: Toxicity in HSV-infected 1 to <2 years aged pediatric patient assessed as incidence of cough at 30.9 mg/kg, po bid; format: organism-based; design: dose 30.9 mg/kg, route oral; conditions: in vivo
[11] = tested on: Homo sapiens; test: Toxicity in orally dosed VZV-infected patient assessed as incidence of pruritus administered as tid; format: organism-based; conditions: in vivo, po
[12] = tested on: Homo sapiens; test: Toxicity in VZV-infected 6 to <=12 years aged pediatric patient assessed as incidence of pruritus at 35.5 mg/kg, po tid; format: organism-based; design: dose 35.5 mg/kg, route oral; conditions: in vivo
[13] = Tmax in 2 to <6 years aged pediatric patient administered as single dose; format: ADME, organism-based; conditions: human, in vivo
[14] = tested on: Homo sapiens; test: Toxicity in VZV-infected 1 to <2 years aged pediatric patient assessed as incidence of headache at 40.8 mg/kg, po tid; format: organism-based; design: dose 40.8 mg/kg, route oral; conditions: in vivo
[15] = tested on: Homo sapiens; test: Toxicity in VZV-infected 6 to <=12 years aged pediatric patient assessed as incidence of nausea at 35.5 mg/kg, po tid; format: organism-based; design: dose 35.5 mg/kg, route oral; conditions: in vivo
[16] = Apparent oral clearance in 6 to <=12 years aged pediatric patient administered as single dose; format: ADME, organism-based; conditions: human, in vivo
[17] = tested on: Homo sapiens; test: Toxicity in VZV-infected 2 to <6 years aged pediatric patient assessed as incidence of pruritus at 40.6 mg/kg, po tid; format: organism-based; design: dose 40.6 mg/kg, route oral; conditions: in vivo
[18] = tested on: Homo sapiens; test: Toxicity in HSV-infected 2 to <6 years aged pediatric patient assessed as incidence of headache at 27.6 mg/kg, po bid; format: organism-based; design: dose 27.6 mg/kg, route oral; conditions: in vivo
[19] = tested on: Homo sapiens; test: Toxicity in HSV-infected 2 to <6 years aged pediatric patient assessed as incidence of abdominal pain at 27.6 mg/kg, po bid; format: organism-based, Abdomen; design: dose 27.6 mg/kg, route oral; conditions: in vivo
[20] = tested on: Homo sapiens; test: Toxicity in HSV-infected 1 to <2 years aged pediatric patient assessed as pyrexia at 30.9 mg/kg, po administered as bid; format: organism-based; design: dose 30.9 mg/kg, route oral; conditions: in vivo
[21] = tested on: Homo sapiens; test: Toxicity in HSV-infected 2 to <6 years aged pediatric patient assessed as incidence of diarrhea at 27.6 mg/kg, po bid; format: organism-based; design: dose 27.6 mg/kg, route oral; conditions: in vivo
[22] = tested on: Homo sapiens; test: Toxicity in orally dosed VZV-infected patient assessed as incidence of cellulitis administered as tid; format: organism-based; conditions: in vivo, po
[23] = tested on: Homo sapiens; test: Toxicity in HSV-infected 2 to <6 years aged pediatric patient assessed as incidence of nausea at 27.6 mg/kg, po bid; format: organism-based; design: dose 27.6 mg/kg, route oral; conditions: in vivo
[24] = tested on: Homo sapiens; test: AUC (0 to last) in 1 to <2 years aged pediatric patient administered as single dose; format: ADME, organism-based, Plasma; design: time 0 - last; conditions: in vivo
[25] = tested on: Homo sapiens; test: Toxicity in VZV-infected 1 to <2 years aged pediatric patient assessed as incidence of diarrhea at 40.8 mg/kg, po tid; format: organism-based; design: dose 40.8 mg/kg, route oral; conditions: in vivo
[26] = tested on: Homo sapiens; test: Toxicity in VZV-infected 1 to <2 years aged pediatric patient assessed as at least one adverse event at 40.8 mg/kg, po tid; format: organism-based; design: dose 40.8 mg/kg, route oral; conditions: in vivo
[27] = tested on: Homo sapiens; test: Toxicity in VZV-infected 1 to <2 years aged pediatric patient assessed as incidence of nausea at 40.8 mg/kg, po tid; format: organism-based; design: dose 40.8 mg/kg, route oral; conditions: in vivo
[28] = tested on: Homo sapiens; test: Toxicity in VZV-infected 6 to <=12 years aged pediatric patient assessed as incidence of cellulitis at 35.5 mg/kg, po tid; format: organism-based; design: dose 35.5 mg/kg, route oral; conditions: in vivo
[29] = Tmax in 6 to <=12 years aged pediatric patient administered as single dose; format: ADME, organism-based; conditions: human, in vivo
[30] = tested on: Homo sapiens; test: Toxicity in orally dosed HSV-infected patient assessed as incidence of cough administered as bid; format: organism-based; conditions: in vivo, po
[31] = tested on: Homo sapiens; test: Toxicity in VZV-infected 6 to <=12 years aged pediatric patient assessed as pyrexia at 35.5 mg/kg, po tid; format: organism-based; design: dose 35.5 mg/kg, route oral; conditions: in vivo
[32] = tested on: Homo sapiens; test: AUC (0 to last) in 2 to <6 years aged pediatric patient administered as single dose; format: ADME, organism-based, Plasma; design: time 0 - last; conditions: in vivo
[33] = Half life in 2 to <6 years aged pediatric patient administered as single dose; format: ADME, organism-based; conditions: human, in vivo
[34] = tested on: Homo sapiens; test: Toxicity in orally dosed VZV-infected patient assessed as incidence of diarrhea administered as tid; format: organism-based; conditions: in vivo, po
[35] = tested on: Homo sapiens; test: Toxicity in HSV-infected 1 to <2 years aged pediatric patient assessed as incidence of nausea at 30.9 mg/kg, po bid; format: organism-based; design: dose 30.9 mg/kg, route oral; conditions: in vivo
[36] = tested on: Homo sapiens; test: Toxicity in VZV-infected 6 to <=12 years aged pediatric patient assessed as incidence of headache at 35.5 mg/kg, po tid; format: organism-based; design: dose 35.5 mg/kg, route oral; conditions: in vivo
[37] = tested on: Homo sapiens; test: Toxicity in HSV-infected 1 to <2 years aged pediatric patient assessed as incidence of diarrhea at 30.9 mg/kg, po bid; format: organism-based; design: dose 30.9 mg/kg, route oral; conditions: in vivo
[38] = tested on: Homo sapiens; test: Toxicity in VZV-infected 1 to <2 years aged pediatric patient assessed as incidence of abdominal pain at 40.8 mg/kg, po tid; format: organism-based, Abdomen; design: dose 40.8 mg/kg, route oral; conditions: in vivo
[39] = tested on: Homo sapiens; test: Toxicity in VZV-infected 2 to <6 years aged pediatric patient assessed as incidence of vomiting at 40.6 mg/kg, po tid; format: organism-based; design: dose 40.6 mg/kg, route oral; conditions: in vivo
[40] = tested on: Homo sapiens; test: Toxicity in HSV-infected 1 to <2 years aged pediatric patient assessed as incidence of headache at 30.9 mg/kg, po bid; format: organism-based; design: dose 30.9 mg/kg, route oral; conditions: in vivo
[41] = tested on: Homo sapiens; test: Toxicity in orally dosed VZV-infected patient assessed as pyrexia administered as tid; format: organism-based; conditions: in vivo, po
[42] = tested on: Homo sapiens; test: Toxicity in HSV-infected 2 to <6 years aged pediatric patient assessed as at least one adverse event at 27.6 mg/kg, po bid; format: organism-based; design: dose 27.6 mg/kg, route oral; conditions: in vivo
[43] = Half life in 1 to <2 years aged pediatric patient administered as single dose; format: ADME, organism-based; conditions: human, in vivo
[44] = Half life in 6 to <=12 years aged pediatric patient administered as single dose; format: ADME, organism-based; conditions: human, in vivo
[45] = tested on: Homo sapiens; test: Toxicity in HSV-infected 2 to <6 years aged pediatric patient assessed as incidence of cough at 27.6 mg/kg, po bid; format: organism-based; design: dose 27.6 mg/kg, route oral; conditions: in vivo
[46] = Cmax in 1 to <2 years aged pediatric patient administered as single dose; format: ADME, organism-based; conditions: human, in vivo
[47] = tested on: Homo sapiens; test: Toxicity in HSV-infected 6 to <=12 years aged pediatric patient assessed as incidence of nausea at 23.5 mg/kg, po bid; format: organism-based; design: dose 23.5 mg/kg, route oral; conditions: in vivo
[48] = Cmax in 6 to <=12 years aged pediatric patient administered as single dose; format: ADME, organism-based; conditions: human, in vivo
[49] = tested on: Homo sapiens; test: Toxicity in VZV-infected 6 to <=12 years aged pediatric patient assessed as incidence of vomiting at 35.5 mg/kg, po tid; format: organism-based; design: dose 35.5 mg/kg, route oral; conditions: in vivo
[50] = tested on: Homo sapiens; test: AUC (0 to last) in 6 to <=12 years aged pediatric patient administered as single dose; format: ADME, organism-based, Plasma; design: time 0 - last; conditions: in vivo
[51] = tested on: Homo sapiens; test: Toxicity in HSV-infected 1 to <2 years aged pediatric patient assessed as incidence of vomiting at 30.9 mg/kg, po bid; format: organism-based; design: dose 30.9 mg/kg, route oral; conditions: in vivo

SMILES: Nc1nc2c(ncn2CCC(CO)CO)c(=O)[nH]1 [PENCICLOVIR]
- Tmax [1]: 1.08 h
- Activity [2]: 3.8%
- CL/F [3]: 278 mL/min
- AUC [4]: 7.23 ug/hr.ml
- Activity [5]: 18.8%
- Activity [6]: 12.5%
- Activity [7]: 8.5%
- Activity [8]: 8.5%
- AUC [9]: 7.16 ug/hr.ml
- Activity [10]: 7.7%
- Activity [11]: 3.8%
- Activity [12]: 6.3%
- Tmax [13]: 1.07 h
- Activity [14]: 0%
- Activity [15]: 6.3%
- CL/F [16]: 578 mL/min
- Activity [17]: 0%
- Activity [18]: 0%
- Activity [19]: 6.3%
- Activity [20]: 15.4%
- Activity [21]: 6.3%
- Activity [22]: 3.8%
- Activity [23]: 0%
- AUC [24]: 6.52 ug/hr.ml
- Activity [25]: 11.1%
- Activity [26]: 38.9%
- Activity [27]: 0%
- Activity [28]: 6.3%
- Tmax [29]: 1 h
- Activity [30]: 6.4%
- Activity [31]: 6.3%
- AUC [32]: 6.31 ug/hr.ml
- half-life [33]: 76.8 min
- Activity [34]: 11.3%
- Activity [35]: 7.7%
- Activity [36]: 12.5%
- Activity [37]: 7.7%
- Activity [38]: 0%
- Activity [39]: 0%
- Activity [40]: 0%
- Activity [41]: 7.5%
- Activity [42]: 50%
- half-life [43]: 72 min
- half-life [44]: 97.2 min
- Activity [45]: 6.3%
- Cmax [46]: 3060 ng/mL
- Activity [47]: 11.1%
- Cmax [48]: 3410 ng/mL
- Activity [49]: 0%
- AUC [50]: 7.98 ug/hr.ml
- Activity [51]: 15.4%
